Experimental data published in the NIST ThermoML archive (doi:10.1016/j.fluid.2014.12.036).
± gives the expanded uncertainty stated by the source.

Details: Crystal; visual observation

Normal melting temperature [°C] | SMILES
18.4 ± 0.4 | CCCCCCCCCCCCCCCC [hexadecane]
28.5 ± 0.4 | CCCCCCCCCCCCCCCCCC [octadecane]
6.2 ± 0.4 | CCCCCCCCCCCCCC [tetradecane]
